Source: patent US6387406B1, “Copolymer compositions for oral delivery” (Supratek Pharma Inc., priority 1992, dated 2002)
Converted amounts (≈) assume the structure as drawn. Where two headings read alike, the source gives them in different places.

Tests used:
[1] = system: SKVLB cell line (SK-resistant cells); assay: XTT cytotoxicity on SK-resistant cells; type: cell-based, human; conditions: for IC50: Homo sapiens
DBA/2 mice [2] = system: DBA/2 mice
[3] = system: neuroleptic effect as monitored behaviorally; assay: Minimum neuroleptic dose (MND); type: in vivo; conditions: control preparation
Description: The minimum neuroleptic dose (MND) was determined for each preparation. The minimum neuroleptic dose is defined as the minimum dose that caused a neuroleptic effect as monitored behaviorally. See, Kabanov et al., FEBS Lett. 258: 343-345, 1989. The MND for the copolymer-containing preparation was 0.02 mg/kg, while that of the control preparation was 2 mg/kg. The ratio of LD95/MND was 50 for the copolymer preparation and 5 for the control preparation.

DBA/2 mice [4] = conditions: ±S.D.
[5] = system: SKOV3 line of transformed cells (SK cells); assay: Cytotoxicity on SK cells; type: cell-based, human; conditions: free drug
glucose level in plasma = assay: Insulin-induced hypoglycemia, s.c. or p.o.; type: in vivo, Balb/c mice
Description: Hypoglycemia induced by high doses of insulin in mice was used as biological response criteria. The drug activity was evaluated by analyzing the glucose level in plasma versus time following drug administration. Isotonic solutions of free insulin (Ins) or insulin formulated with POE-POP block copolymer (“SP1-Ins”) were given to Balb/c mice at the same doses either s.c. or p.o.
Female six-week-old Balb/c mice (six animals per time point) were administered s.c. or p.o. with sterile 100 μl per 20 g of body weight (5 ml/kg) of Insulin or SP1-Insulin solutions, and the same volumes of isotonic solution were given to the control group of animals. Both Insulin and SP1-Insulin injections contained 0.02 mg/ml of insulin with activity of 27.3 μ/mg.
The animals were sacrificed after various time intervals (0.5-6 hr; post-administration), plasma samples were collected, and glucose levels were analyzed by standard glucosoxidase-peroxidase method. The statistical significance was analyzed by the multiple range text of Duncan-Kramer.

BALB/c male mice = conditions: mouse, in vivo, ip
[6] = control preparation, solution in RPMI 1640
[7] = Example 10: 10% of LD95 i.p., stearoylated insulin-targeted micelles vs free drug

## COc1cccc2c1C(=O)c1c(O)c3c(c(O)c1C2=O)C[C@@](O)(C(=O)CO)C[C@@H]3O[C@H]1C[C@H](N)[C@H](O)[C@H](C)O1 [Free doxorubicin, doxorubicin]
[1]
  IC50: 60 µg/mL (≈ 110 µM)

## CCN1CCCC1CNC(=O)c1cc(S(N)(=O)=O)ccc1OC (stereo not shown) [Sulpiride]
DBA/2 mice [2]; [6]
  LD95: 100 mg/kg body weight

## CN1CCN(CCCN2c3ccccc3Sc3ccc(C(F)(F)F)cc32)CC1 [Trifluorperazine]
[3]
  minimum neuroleptic dose (MND): 2 mg/kg
  ratio of LD95/MND: 5
DBA/2 mice [2]; [6]
  LD95: 10 mg/kg body weight

## O=C(CCCN1CCC(O)(c2ccc(Cl)cc2)CC1)c1ccc(F)cc1 [haloperidol]
DBA/2 mice [2]; i.p., without the Pluronic vehicle
  LD95: 75 mg/kg
DBA/2 mice [4]; Example 7: 10% of LD95 i.p., antibody-targeted micelles vs free drug
  Horizontal mobility: 204.6 ± 24%
DBA/2 mice [4]; [7]
  Grooming: 1656.4 ± 6.5%
  Horizontal mobility: 180.1 ± 26%

## CN(Cc1cnc2nc(N)nc(N)c2n1)c1ccc(C(=O)N[C@@H](CCC(=O)O)C(=O)O)cc1 [methotrexate]
[1]; free drug, read-out: IC50 against SK-resistant cells
  IC50: 1.34 µg/mL (≈ 2.95 µM)

## CO[C@@]12[C@H](COC(N)=O)C3=C(C(=O)C(C)=C(N)C3=O)N1C[C@@H]1N[C@@H]12 [mitomycin C]
[1]; free drug
  IC50 against SK-resistant cells: 1.120 µg/mL (≈ 3.35 µM)
[5]
  IC50 against SK cells: 0.320 µg/mL (≈ 0.957 µM)

## Insulin
Glucose level in plasma; p.o., in words
  changes in plasma glucose level: only minor changes
Glucose level in plasma; s.c.
  time to return to the normal glucose level: about 6 hours
Glucose level in plasma; s.c., 3 hours after administration
  glucose level in plasma: about 15 % of the normal level

## Pluronic P85
BALB/c male mice
  MTD: 200 mg/kg
